What was measured:
Format in all cases: cell-based
[1] = molecular target: T1, 17β-hydroxysteroid dehydrogenase type 2 (17β-HSD type 2) (Homo sapiens, UniProt P37059); assay: Inhibition of 17β-HSD type 2 in MCF-7 cells stably expressing the isoenzyme (tritium labeled estradiol conversion, HPLC); settings: MCF-7 cells expressing 17β-HSD type 2, 2 nM tritium labeled estradiol; for inhibition at 1 µM / inhibition at 10 µM: MCF7; for inhibition at 1 µM / % Inhibition HSD2 1 μM: 1 μM test compound; for inhibition at 1 µM: read-out: % Inhibition HSD2 1 μM; for inhibition at 10 µM / % Inhibition HSD2 10 μM: 10 μM test compound; for inhibition at 10 µM: read-out: % Inhibition HSD2 10 μM
T1 construct: expressed in transfected cells; host or cells: MCF-7
T1 sequence (P37059 1-387): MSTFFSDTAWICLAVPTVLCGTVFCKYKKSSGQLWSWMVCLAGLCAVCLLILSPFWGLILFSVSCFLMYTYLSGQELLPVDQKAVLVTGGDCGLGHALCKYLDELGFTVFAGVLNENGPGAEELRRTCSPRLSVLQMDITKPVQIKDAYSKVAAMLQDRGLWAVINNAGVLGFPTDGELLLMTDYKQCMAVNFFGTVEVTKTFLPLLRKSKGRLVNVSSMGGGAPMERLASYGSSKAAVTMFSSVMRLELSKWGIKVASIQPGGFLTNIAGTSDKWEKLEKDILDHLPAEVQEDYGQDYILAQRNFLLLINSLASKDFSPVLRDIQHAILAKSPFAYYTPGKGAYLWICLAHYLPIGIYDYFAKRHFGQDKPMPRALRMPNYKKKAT
Summary of the method: (§1)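 Each isoenzyme was stably expressed in its own MCF-7 line, and cells were incubated in growth medium with test compound and 2 nM tritiated substrate: estrone (type 1), estradiol (type 2), androstenedione (type 3). Medium was sampled after a fixed time, TCA-stopped, and analysed by HPLC-flow scintillation; inhibition versus compound-free control, two compound concentrations.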

[2] = molecular target: T2, 17β-hydroxysteroid dehydrogenase type 1 (17β-HSD type 1) (Homo sapiens, UniProt P14061); assay: Inhibition of 17β-HSD type 1 in MCF-7 cells stably expressing the isoenzyme (tritium labeled estrone conversion, HPLC); settings: MCF-7 cells expressing 17β-HSD type 1, 2 nM tritium labeled estrone; for inhibition at 1 µM / inhibition at 10 µM: MCF7; for inhibition at 1 µM / % Inhibition HSD1 1 μM: 1 μM test compound; for inhibition at 1 µM: read-out: % Inhibition HSD1 1 μM; for inhibition at 10 µM / % Inhibition HSD1 10 μM: 10 μM test compound; for inhibition at 10 µM: read-out: % Inhibition HSD1 10 μM
T2 construct: expressed in transfected cells; host or cells: MCF-7
T2 sequence (P14061 1-328): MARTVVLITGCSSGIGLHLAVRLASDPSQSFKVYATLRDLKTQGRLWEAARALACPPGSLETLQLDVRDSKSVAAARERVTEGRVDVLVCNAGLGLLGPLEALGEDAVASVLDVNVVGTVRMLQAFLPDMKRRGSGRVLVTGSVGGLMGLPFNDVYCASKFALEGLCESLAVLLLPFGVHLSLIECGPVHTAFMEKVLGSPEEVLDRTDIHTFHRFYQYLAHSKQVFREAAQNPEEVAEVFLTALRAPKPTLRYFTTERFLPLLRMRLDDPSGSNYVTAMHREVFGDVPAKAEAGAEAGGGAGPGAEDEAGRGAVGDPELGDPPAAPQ
Summary of the method: as §1

[3] = molecular target: T3, 17β-hydroxysteroid dehydrogenase type 3 (17β-HSD type 3) (Homo sapiens, UniProt P37058); assay: Inhibition of 17β-HSD type 3 in MCF-7 cells stably expressing the isoenzyme (tritium labeled androstenedione conversion, HPLC); settings: MCF-7 cells expressing 17β-HSD type 3, 2 nM tritium labeled androstenedione; for inhibition at 1 µM / inhibition at 10 µM: MCF7; for inhibition at 1 µM / % Inhibition HSD3 1 μM: 1 μM test compound; for inhibition at 1 µM: read-out: % Inhibition HSD3 1 μM; for inhibition at 10 µM / % Inhibition HSD3 10 μM: 10 μM test compound; for inhibition at 10 µM: read-out: % Inhibition HSD3 10 μM
T3 construct: expressed in transfected cells; host or cells: MCF-7
T3 sequence (P37058 1-310): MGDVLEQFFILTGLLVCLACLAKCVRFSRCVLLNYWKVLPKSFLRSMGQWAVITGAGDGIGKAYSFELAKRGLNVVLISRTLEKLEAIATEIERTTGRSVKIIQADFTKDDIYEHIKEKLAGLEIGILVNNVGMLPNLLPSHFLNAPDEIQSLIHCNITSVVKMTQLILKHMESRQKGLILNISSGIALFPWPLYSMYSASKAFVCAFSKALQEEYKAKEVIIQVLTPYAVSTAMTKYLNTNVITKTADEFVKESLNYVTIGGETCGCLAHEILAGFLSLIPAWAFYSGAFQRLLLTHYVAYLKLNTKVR
Summary of the method: as §1

Row | Structure (SMILES) | inhibition at 1 µM [1] | inhibition at 10 µM [1] | inhibition at 1 µM [2] | inhibition at 10 µM [2] | inhibition at 1 µM [3] | inhibition at 10 µM [3] | % Inhibition HSD2 1 μM [1] | % Inhibition HSD2 10 μM [1] | % Inhibition HSD1 1 μM [2] | % Inhibition HSD1 10 μM [2] | % Inhibition HSD3 1 μM [3] | % Inhibition HSD3 10 μM [3]
1 | COc1cc(-c2nc3sc4c(O)cccc4c3c(=O)n2CC2CCCO2)c(Cl)c(OC)c1OC (stereo not drawn) [No. 140, 2-(2-Chloro-3,4,5-trimethoxyphenyl)-8-hydroxy-3-(tetrahydrofuran-2-ylmethyl)-3H-benzo[4,5]thieno[2,3-d]pyrimidin-4-one] | 10.3% | 36.8% | 39.5% | 81% | 8.8% | 63.5% |  |  |  |  |  | 
2 | CCC(C)Cn1c(-c2cc(OC)c(OC)c(OC)c2Cl)nc2sc3c(c2c1=O)CCC(Cl)C3=O (stereo not drawn) [No. 141, 7-Chloro-2-(2-chloro-3,4,5-trimethoxyphenyl)-3-(2-methylbutyl)-6,7-dihydro-3H,5H-benzo[4,5]thieno[2,3-d]pyrimidine-4,8-dione] | 3% | 1.1% | 25% | 58.9% | 2.7% | 22.7% |  |  |  |  |  | 
3 | CCC(C)Cn1c(-c2cc(OC)c(OC)c(OC)c2Cl)nc2sc3c(c2c1=O)CCC(Cl)(Cl)C3=O (stereo not drawn) [No. 142, 7,7-Dichloro-2-(2-chloro-3,4,5-trimethoxyphenyl)-3-(2-methylbutyl)-6,7-dihydro-3H,5H-benzo[4,5]thieno[2,3-d]pyrimidine-4,8-dione] | 6.2% | 10.5% | 32.8% | 52.7% | 8% | 24.1% |  |  |  |  |  | 
4 | CCC(C)Cn1c(-c2cc(OC)c(OC)c(OC)c2Cl)nc2sc3c(O)cccc3c2c1=O (stereo not drawn) [No. 143, 2-(2-Chloro-3,4,5-trimethoxyphenyl)-8-hydroxy-3-(2-methylbutyl)-3H-benzo[4,5]thieno[2,3-d]pyrimidin-4-one] | 4.5% | 17.7% | 40.1% | 74.2% | 12.5% | 52.1% |  |  |  |  |  | 
5 | COc1ccc(-c2nc3sc4c(c3c(=O)n2Cc2ccccc2)CCC(Br)(Br)C4=O)cc1 [No. 147, 3-Benzyl-7,7-dibromo-2-p-methoxyphenyl-6,7-dihydro-3H,5H-benzo[4,5]thieno[2,3-d]pyrimidine-4,8-dione] | 0.1% | 17.2% | 11.4% | 12.5% | 10.3% | 9.1% |  |  |  |  |  | 
6 | COCCn1c(-c2cccs2)nc2sc3c(O)c(Br)ccc3c2c1=O [No. 148, 7-Bromo-8-hydroxy-3-(2-methoxyethyl)-2-thiophen-2-yl-3H-benzo[4,5]thieno[2,3-d]pyrimidin-4-one] | 29.1% | 42% | 27% | 53.2% | 53.7% | 97.9% |  |  |  |  |  | 
7 | O=c1c2c(nc(-c3cccs3)n1CCO)sc1c(O)c(Br)ccc12 [No. 149, 7-Bromo-8-hydroxy-3-(2-hydroxyethyl)-2-thiophen-2-yl-3H-benzo[4,5]thieno[2,3-d]pyrimidin-4-one] | 34.6% | 29.9% | 17.8% | 18.3% | 31% | 59.8% |  |  |  |  |  | 
8 | O=c1c2c(nc(CCC3CCCC3)n1CCc1ccccc1)sc1c(O)cccc12 [No. 627] |  |  |  |  |  |  | 27.1% | 22.6% | 25.2% | 26.6% | 10.7% | 33.9%
9 | CCCCC(CC)c1nc2sc3c(O)cccc3c2c(=O)n1CCc1ccccc1 (stereo not drawn) [No. 628] |  |  |  |  |  |  | −0.9% | 22.5% | 11.4% | 32.4% | 12.4% | 36.1%

Now from value to compound, other results behind:

Row | inhibition at 1 µM [1] | inhibition at 10 µM [1] | inhibition at 1 µM [2] | inhibition at 10 µM [2] | inhibition at 1 µM [3] | inhibition at 10 µM [3] | Structure (SMILES) | % Inhibition HSD2 1 μM [1] | % Inhibition HSD2 10 μM [1] | % Inhibition HSD1 1 μM [2] | % Inhibition HSD1 10 μM [2] | % Inhibition HSD3 1 μM [3] | % Inhibition HSD3 10 μM [3]
10 | 19.1% | 34.6% | 54% | 96.6% | 21.8% | 93.1% | COc1cc(-c2nc3sc4c(c3c(=O)n2CC(C)C)C(Br)CCC4=O)cc(OC)c1OC (stereo not drawn) [No. 135, 5-Bromo-3-isobutyl-2-(3,4,5-trimethoxyphenyl)-6,7-dihydro-3H,5H-benzo[4,5]thieno[2,3-d]pyrimidine-4,8-dione] |  |  |  |  |  | 
11 | 23.2% | 8.8% | 3.6% | 8.5% | 3.5% | 11% | COc1cc(-c2nc3sc4c(OC)cccc4c3c(=O)n2CC(C)C)cc(OC)c1OC [No. 136, 3-Isobutyl-8-methoxy-2-(3,4,5-trimethoxyphenyl)-3H-benzo[4,5]thieno[2,3-d]pyrimidin-4-one] |  |  |  |  |  | 
12 | 28.1% | 32.9% | 35% | 76% | 19.3% | 49.8% | COc1cc(-c2nc3sc4c(c3c(=O)n2Cc2ccccc2)C(Br)CCC4=O)cc(OC)c1OC (stereo not drawn) [No. 137, 3-Benzyl-5-bromo-2-(3,4,5-trimethoxyphenyl)-6,7-dihydro-3H,5H-benzo[4,5]thieno[2,3-d]pyrimidine-4,8-dione] |  |  |  |  |  | 
13 | 25.7% | 24.8% | 20.6% | 21.5% | 6.8% | 23% | COc1cc(-c2nc3sc4c(OC)cccc4c3c(=O)n2Cc2ccccc2)cc(OC)c1OC [No. 138, 3-Benzyl-8-methoxy-2-(3,4,5-trimethoxyphenyl)-3H-benzo[4,5]thieno[2,3-d]pyrimidin-4-one] |  |  |  |  |  | 
14 | 13.6% | 31.1% | 23.5% | 33.7% | 12.7% | 19.3% | COc1cc(-c2nc3sc4c(c3c(=O)n2Cc2cccnc2)CCCC4)cc(OC)c1OC [No. 144] |  |  |  |  |  | 
15 | 25.9% | 25.7% | 23.6% | 21.2% | 19.2% | 21.6% | COc1cc(-c2nc3sc4c(c3c(=O)n2Cc2ccccc2)CCCC4O)cc(OC)c1OC (stereo not drawn) [No. 145, 3-Benzyl-8-hydroxy-2-(3,4,5-trimethoxyphenyl)-5,6,7,8-tetrahydro-3H-benzo[4,5]thieno[2,3-d]pyrimidin-4-one] |  |  |  |  |  | 
16 | 14.3% | 5.1% | 7.3% | 50.9% | 14.7% | 37.9% | COc1ccc(-c2nc3sc4c(c3c(=O)n2Cc2ccccc2)CCC(Br)C4=O)cc1 (stereo not drawn) [No. 146, 3-Benzyl-7-bromo-2-p-methoxyphenyl-6,7-dihydro-3H,5H-benzo[4,5]thieno[2,3-d]pyrimidine-4,8-dione] |  |  |  |  |  | 
17 | 6.4% | 11.4% | 0.4% | 3.4% | -1.1% | 22% | COc1cc(-c2nc3sc4c(Cl)c(C=O)ccc4c3c(=O)n2Cc2ccccc2)c(Cl)c(OC)c1OC [No. 150, 3-Benzyl-8-chloro-2-(2-chloro-3,4,5-trimethoxyphenyl)-4-oxo-3,4-dihydro-benzo[4,5]thieno[2,3-d]pyrimidine-7-carbaldehyde] |  |  |  |  |  | 

— patent publication US7524853B2 (Solvay Pharmaceuticals B.V., priority 2003, dated 2009)
